# According to US8685976B2, “Cell adhesion promoting agent and method of promoting cell adhesion” (Kyoto University, priority 2008, dated 2014):
# Experiments:
# CHO 745 cells = assay: Cell adhesion assay, CHO 745; assay type: cell-based; conditions: CHO 745, 6 μM, vs parental CHO-K1
# Experimental: (§1) (A) and (B) show CHO-K1 (wild-type) cells incubated with 1% (v/v) DMSO (A) or 6 μM adhesamine (B). (C) and (D) show CHO 677 incubated with 1% (v/v) DMSO (A) or 6 μM adhesamine (B). […] Cells were seeded onto adhesamine-added or fibronectin-coated plastic wells. The concentrations of adhesamine and fibronectin were 6 μM and 5 μg/mL, respectively. Adhered cells were counted at 5 hours after seeding. Each point represents average±SD.
# (§2) For CHO wild-type and CHO mutant cell lines, 100 μL of trypsinized cell suspension in a culture medium was added to each well at a density of 2×10^5 cells/mL. After 5-hour incubation at 37° C., non-adhered cells were removed by washing each well with PBS twice, and the attached cells were counted with a Neubauer counting chamber (Digital Bio). To calculate adhesion rates, the cell numbers before washing were assigned a value of 100%. Each assay was conducted in triplicate, and the means and standard derivations were calculated for a minimum of three independent experiments.
# HepG2 cells [1] = assay: Focal adhesion formation, anti-vinculin staining; assay type: cell-based; conditions: HepG2, immediately after seeding
# Experimental: Trypsin-treated HepG2 cells were plated for 3 hours onto coverslips to which adhesamine was added; fixed thereon; and stained with anti-vinculin antibody and Alexa Fluor 488 goat anti-mouse IgG.
# The cells were also stained with an antibody against vinculin, a marker of focal adhesion. […] These observations indicate that the adhesamine-induced contacts of the cells to the plates initiate a normal schedule of cell adhesion^(2,3).
# [2] = test system: extracellular signal-regulated kinase (ERK); assay: Western blotting, ERK activation; assay type: cell-based, human; conditions: Jurkat, 6 μM
# Experimental: Jurkat cells were treated with adhesamine (6 μM) in a serum-poor culture medium (0.1% FBS) for the indicated periods of time. The treated cell lysates were Western blotted with antibodies against FAK phospho-tyrosine^397 (pFAK), FAK, ERK1/2 phospho-threonine^202/tyrosine^204 (pERK) or ERK. In (B), Jurkat cells were incubated for 5 hours with varied concentrations of adhesamine or poly-L-lysine. The cell lysates were Western blotted with antibodies against FAK phospho-tyrosine^397 or FAK. […] The concentration of adhesamine (1) was 6 μM.
# Jurkat cells were maintained in an RPMI medium containing 10% FBS. 5-6 million Jurkat cells were dispensed to a well of a 6-well plate in a final volume of 2 mL, and then incubated at 37° C. for 0-5 hours in the presence of adhesamine or poly-L-lysine. Non-adherent cells were removed and pelleted, and the remaining adherent cells were lysed in a 125 mM Tris-HCl buffer (pH 6.8) containing 4% SDS, 10% glycerol, 0.006% bromophenol blue, and 1.8% β-mercaptoethanol. The adherent cell homogenate was combined with pelleted nonadherent cells from the same well, and the combined sample was boiled for 5 minutes. The samples were separated by SDS-PAGE and electroblotted onto a nitrocellulose membrane. The membranes were blocked in 1% BSA and incubated with primary antibody, and then with horseradish peroxidase-conjugated secondary antibody. […]
# HepG2 cells [3] = assay: Visualization of actin cytoskeleton with rhodamine-conjugated phalloidin, HepG2; assay type: cell-based; conditions: HepG2, 6 μM
# Experimental: In (A) and (B), the cell growth was determined at 24, 48, and 72 hours after the addition of adhesamine (1) (6 μM). The cell growth in the presence of 1% (v/v) DMSO was assigned a value of 100%. The data shown are means±SD for a minimum of three experiments. (C) to (F) show the rearrangement of actin filaments in HepG2 and Jurkat cells in the presence of adhesamine (6 μM). Brightfield images (C and D) and confocal images (E and F) are shown. HepG2 (C and E) or Jurkat (D and F) cells were plated for 5 hours or 3 hours, respectively, and actin cytoskeletal was visualized using rhodamine-labeled phalloidin.
# Jurkat or HepG2 cells were plated onto glass coverslips in the presence of adhesamine (6 μM). They were fixed after 5 or 3 hours, respectively, with 4% paraformaldehyde for 20 minutes. The cell membrane was permeabilized by 5-min treatment with 0.1% Triton X-100 (in PBS). Samples were washed twice with PBS, and actin cytoskeleton was visualized with rhodamine-conjugated phalloidin according to the manufacturer's instructions (Invitrogen). The cell images were captured with a Yokogawa CSU22 confocal fluorescence microscope with 588-nm laser excitation.
# CHO 677 cells = assay: Cell adhesion assay, CHO 677; assay type: cell-based; conditions: CHO 677, 6 μM, vs parental CHO-K1
# Experimental: as §1, §2
structure (smiles),measurement,setting,value
CSc1nc(Cl)c(C=O)c(N2CC[N+]3(CC2)CC[N+]2(CCN(c4nc(SC)nc(Cl)c4C=O)CC2)CC3)n1 [adhesamine],response of cell adhesion to adhesamine,CHO 745 cells,less responsive
same,vinculin-containing focal adhesions,HepG2 cells [1],Vinculin-containing focal adhesions were observed
same,time after incubation at which ERK was phosphorylated,[2],5 h
same,actin cytoskeleton structure in adhered cells,HepG2 cells [3],Actin filament bundles ran in parallel to the cell axis or through cell processes
same,response of cell adhesion to adhesamine,CHO 677 cells,less responsive
